Assay type in all cases: functional
Experiment [1] deals with Streptococcus pneumoniae. The experiment in a line: In vitro antibacterial activity against the gram-positive bacteria, penicillin resistant Streptococcus pneumoniae (4636).
Experiment [2] concerns Staphylococcus aureus. The experiment in a line: In vitro antibacterial activity against the gram-positive bacteria, penicillin sensitive Staphylococcus aureus (3072).
The subject of experiment [3] is Streptococcus pneumoniae. Description: In vitro antibacterial activity against the gram-positive bacteria, penicillin resistant Streptococcus pneumoniae (4630).
Experiment [4] relates to Staphylococcus aureus. The experiment in a line: In vitro antibacterial activity against the gram-positive bacteria, penicillin resistant Staphylococcus aureus (2619).
Experiment [5] relates to Streptococcus pneumoniae. The experiment in a line: In vitro antibacterial activity against the gram-positive bacteria, penicillin resistant Streptococcus pneumoniae (4635).
Experiment [6] has as its system Streptococcus pneumoniae. The experiment in a line: In vitro antibacterial activity against the gram-positive bacteria, penicillin sensitive Streptococcus pneumoniae (3272).
The test system of experiment [7] is Streptococcus pneumoniae. The experiment in a line: In vitro antibacterial activity against the gram-positive bacteria, penicillin sensitive Streptococcus pneumoniae (3273).
Experiment [8] deals with Staphylococcus aureus. The experiment in a line: In vitro antibacterial activity against the gram-positive bacteria, penicillin resistant Staphylococcus aureus (2672).
Experiment [9] relates to Streptococcus pneumoniae. Description: In vitro antibacterial activity against the gram-positive bacteria, penicillin sensitive Streptococcus pneumoniae (3512).
In experiment [10] the test system is Streptococcus pyogenes. Description: In vitro antibacterial activity against the gram-positive bacteria, erythromycin resistant Streptococcus pyogenes.
Experiment [11] deals with Staphylococcus aureus. The experiment in a line: In vitro antibacterial activity against the gram-positive bacteria, penicillin resistant Staphylococcus aureus (853).
Experiment [12] has as its system Streptococcus pneumoniae. The experiment in a line: In vitro antibacterial activity against the gram-positive bacteria, penicillin resistant Streptococcus pneumoniae (4629).
Experiment [13] concerns Staphylococcus aureus. Description: In vitro antibacterial activity against the gram-positive bacteria, penicillin sensitive Staphylococcus aureus (3849).
Experiment [14] relates to Staphylococcus aureus. Description: In vitro antibacterial activity against the gram-positive bacteria, penicillin sensitive Staphylococcus aureus (663E).

SMILES strings stand for the structures. In brackets after ≈: the same amount, converted by molar mass.

For orientation: MIC means the smallest concentration in the dilution series that meets the test's criterion for growth inhibition. The low end stands for inhibition by little substance, the high end for a need for much substance. Turning to `CO/N=C(\C(=O)N[C@@H]1C(=O)N2C(C(=O)O)=C(CSc3nc(=O)c(O)nn3C)CS[C@H]12)c1csc(N)n1` [CEFTRIAXONE], the MIC in experiment [1] is 1 µg/mL (≈ 1.8 µM); in experiment [2], 4 µg/mL (≈ 7.21 µM); in [3], 2 µg/mL (≈ 3.61 µM); in experiment [4], 4 µg/mL (≈ 7.21 µM); in [5] it was 1 µg/mL (≈ 1.8 µM); in experiment [6], 0.03 µg/mL (≈ 0.0541 µM). Besides, the MIC in [7] turned out to be 0.03 µg/mL (≈ 0.0541 µM); in [8] it was 4 µg/mL (≈ 7.21 µM); in [9] it was 0.03 µg/mL (≈ 0.0541 µM); in [10], 0.06 µg/mL (≈ 0.108 µM); in experiment [11] it was 4 µg/mL (≈ 7.21 µM); in [12], 4 µg/mL (≈ 7.21 µM). Moreover, the MIC in [13] and in experiment [14] was 2 µg/mL (≈ 3.61 µM) in each case.

As for `CC(=O)OCC1=C(C(=O)O)N2C(=O)[C@@H](NC(=O)CN(OCc3ccc(Cl)cc3)C(=O)NCc3ccccc3)C2SC1` (stereo partly drawn), the MIC amounted to 32 µg/mL (≈ 53.1 µM) in [1]; 1 µg/mL (≈ 1.66 µM) in experiment [2]; 8 µg/mL (≈ 13.3 µM) in experiment [3]; 1 µg/mL (≈ 1.66 µM) in [4]; 4 µg/mL (≈ 6.63 µM) in experiment [5]; 0.25 µg/mL (≈ 0.415 µM) in experiment [6]. Also, the MIC in experiment [7] was 0.5 µg/mL (≈ 0.829 µM); in experiment [8] it was 2 µg/mL (≈ 3.32 µM); in experiment [9], 0.25 µg/mL (≈ 0.415 µM); in experiment [10], 0.12 µg/mL (≈ 0.199 µM); in experiment [11] it was 1 µg/mL (≈ 1.66 µM); in experiment [12], 8 µg/mL (≈ 13.3 µM). Also, the MIC in [13] and in [14] was 0.5 µg/mL (≈ 0.829 µM) each time.

For `CC(=O)OCC1=C(C(=O)O)N2C(=O)[C@@H](NC(=O)CN(OCc3ccccc3)C(=O)Nc3ccccc3)C2SC1` (stereo partly drawn), the MIC in experiment [1] is 16 µg/mL (≈ 28.9 µM); in experiment [2], 1 µg/mL (≈ 1.8 µM); in experiment [3] it was 8 µg/mL (≈ 14.4 µM); in experiment [4], 2 µg/mL (≈ 3.61 µM); in [5], 8 µg/mL (≈ 14.4 µM); in experiment [6], 0.12 µg/mL (≈ 0.216 µM). The MIC in experiment [7] was 0.25 µg/mL (≈ 0.451 µM); in experiment [8], 4 µg/mL (≈ 7.21 µM); in [9], 0.25 µg/mL (≈ 0.451 µM); in experiment [10], 0.12 µg/mL (≈ 0.216 µM); in experiment [11], 1 µg/mL (≈ 1.8 µM); in [12] it was 8 µg/mL (≈ 14.4 µM). Moreover, the MIC in experiment [13] and in experiment [14] was 0.5 µg/mL (≈ 0.902 µM) in each case.

As for `CC(=O)OCC1=C(C(=O)O)N2C(=O)[C@@H](NC(=O)CN(OCc3ccccc3Cl)C(=O)NCc3ccccc3)C2SC1` (stereo partly drawn), the MIC in experiment [1] came to 64 µg/mL (≈ 106 µM); in experiment [2] it was 1 µg/mL (≈ 1.66 µM); in experiment [3], 16 µg/mL (≈ 26.5 µM); in experiment [4], 1 µg/mL (≈ 1.66 µM); in experiment [5] it was 4 µg/mL (≈ 6.63 µM); in [6], 0.5 µg/mL (≈ 0.829 µM). Moreover, the MIC in experiment [7] worked out at 0.5 µg/mL (≈ 0.829 µM); in experiment [8] it was 4 µg/mL (≈ 6.63 µM); in [9], 0.25 µg/mL (≈ 0.415 µM); in experiment [10], 0.25 µg/mL (≈ 0.415 µM); in [11], 1 µg/mL (≈ 1.66 µM); in experiment [12], 16 µg/mL (≈ 26.5 µM). Also, the MIC in experiment [13] and in [14] was 0.5 µg/mL (≈ 0.829 µM) each time.

For `CC(=O)OCC1=C(C(=O)O)N2C(=O)[C@@H](NC(=O)CN(OCc3cccc(Cl)c3)C(=O)NCc3ccccc3)C2SC1` (stereo partly drawn), the MIC in experiment [1] is 32 µg/mL (≈ 53.1 µM); in experiment [2], 1 µg/mL (≈ 1.66 µM); in [3], 8 µg/mL (≈ 13.3 µM); in [4], 2 µg/mL (≈ 3.32 µM); in [5], 4 µg/mL (≈ 6.63 µM); in experiment [6], 0.25 µg/mL (≈ 0.415 µM). The MIC in experiment [7] worked out at 0.5 µg/mL (≈ 0.829 µM); in experiment [8], 2 µg/mL (≈ 3.32 µM); in experiment [9] it was 0.25 µg/mL (≈ 0.415 µM); in [10] it was 0.25 µg/mL (≈ 0.415 µM); in experiment [11], 1 µg/mL (≈ 1.66 µM); in experiment [12] it was 8 µg/mL (≈ 13.3 µM). Besides, the MIC in experiment [13] amounted to 0.5 µg/mL (≈ 0.829 µM); in experiment [14], 1 µg/mL (≈ 1.66 µM).

With `CC(=O)OCC1=C(C(=O)O)N2C(=O)[C@@H](NC(=O)CN(OCc3ccccc3)C(=O)NCc3ccccc3)C2SC1` (stereo partly drawn), the MIC in experiment [1] stood at 32 µg/mL (≈ 56.3 µM); in experiment [2], 1 µg/mL (≈ 1.76 µM); in [3], 16 µg/mL (≈ 28.1 µM); in experiment [4] it was 1 µg/mL (≈ 1.76 µM); in experiment [5], 4 µg/mL (≈ 7.03 µM); in experiment [6], 0.12 µg/mL (≈ 0.211 µM). The MIC in [7] was determined as 0.5 µg/mL (≈ 0.879 µM); in experiment [8], 2 µg/mL (≈ 3.52 µM); in experiment [9], 0.25 µg/mL (≈ 0.44 µM); in experiment [10] it was 0.25 µg/mL (≈ 0.44 µM); in experiment [11], 1 µg/mL (≈ 1.76 µM); in experiment [12], 16 µg/mL (≈ 28.1 µM). For the same compound, the values for the MIC in experiment [13] and in experiment [14] were 1 µg/mL (≈ 1.76 µM) and 0.5 µg/mL (≈ 0.879 µM), respectively.

Turning to `CC(=O)OCC1=C(C(=O)O)N2C(=O)[C@@H](NC(=O)CN(OCc3cccc(Cl)c3)C(=O)Nc3ccccc3)C2SC1` (stereo partly drawn), the MIC was 4 µg/mL (≈ 6.79 µM) in experiment [1]; 0.5 µg/mL (≈ 0.849 µM) in experiment [2]; 4 µg/mL (≈ 6.79 µM) in experiment [3]; 1 µg/mL (≈ 1.7 µM) in [4]; 2 µg/mL (≈ 3.4 µM) in experiment [5]; 0.06 µg/mL (≈ 0.102 µM) in [6]. Moreover, the MIC in experiment [7] came out at 0.12 µg/mL (≈ 0.204 µM); in experiment [8], 2 µg/mL (≈ 3.4 µM); in experiment [9], 0.12 µg/mL (≈ 0.204 µM); in experiment [10], 0.12 µg/mL (≈ 0.204 µM); in [11], 1 µg/mL (≈ 1.7 µM); in experiment [12], 4 µg/mL (≈ 6.79 µM). Further, the MIC in [13] and in experiment [14] was 0.5 µg/mL (≈ 0.849 µM) in each case.

Values taken from ChEMBL document CHEMBL1132087, “New N-substituted 7-aminocephalosporanic acid derivatives as potential agents against Streptococcus pneumoniae. Synthesis and in vitro activity” (1999).
